Literature values, collected in US20150118313A1, “ENHANCED FOLIC ACID FLUORESCENT MATERIAL, MULTIFLUORESCENT POROUS COMPOSITIONS OF MATTER AND POTENTIAL APPLICATIONS THEREOF” (Nanologica AB, priority 2010, published 2015).
Entries after “also recorded” stand apart in the source; their conditions may differ.

Columns and labels:
[1] = aqueous solvent; solubility is dependent on pH
[2] = weak acid, neutralized in the range of pH 5-7

pKa [2] | Structure (SMILES) | solubility in aqueous solution [1]
6.6 | O=C(O)c1ccc(-c2c3nc(c(-c4ccc(C(=O)O)cc4)c4ccc([nH]4)c(-c4ccc(C(=O)O)cc4)c4nc(c(-c5ccc(C(=O)O)cc5)c5ccc2[nH]5)C=C4)C=C3)cc1 [TCPP, Meso-tetrakis (4-carboxyphenyl) porphyrin] | scarcely soluble; also recorded: poor solubility
– | Nc1nc2ncc(CNc3ccc(C(=O)N[C@@H](CCC(=O)O)C(=O)O)cc3)nc2c(=O)[nH]1 [folic acid] | poor solubility
